Assay results published in US8513271B2, “Pyrimidine compounds as delta opioid receptor modulators” (Janssen Pharmaceutica, NV, priority 2009, dated 2013).
Where two headings read alike, the source gives them in different places.

Experiments:
delta opioid receptor [1] = target: T1, delta opioid receptor (Rattus norvegicus, UniProt P33533); experiment: Rat brain delta opioid receptor binding assay; settings: rat forebrain, [3H]naltrindole ligand
T1 construct: the forebrains were homogenized in Tris buffer in a Teflon®-glass homogenizer; from tissue; host or cells: forebrain of male Wistar rats, particulate (membrane) preparation

delta opioid receptor [2] = target: T2, delta opioid receptor (Mus musculus, UniProt P32300); experiment: [35S]GTPγS binding assay in NG108-15 cell membranes (delta opioid functional assay), 200 nM screen; format: biochemical; settings: NG108-15 cell membranes; for EC50 / GTPγS δ-RelEfficacy @200 nM: averages if tested more than once; for GTPγS δ-opioid receptor Rel Efficacy: relative efficacy from dose response; for GTPγS δ-RelEfficacy @200 nM: 200 nM test compound, relative to calculated max of SNC80 dose response curve
T2 construct: NG108-15 cell membranes were purchased from Applied Cell Sciences (Rockville, Md.); host or cells: NG108-15 cell membranes

[3] = read-out: δ-binding (Naltrindole ligand) Ki
[4] = read-out: GTPγS δ-opioid receptor EC50
[5] = δ-binding (Naltrindole ligand) Ki
[6] = GTPγS δ-opioid receptor EC50 (μM)

T2 sequence (P32300 whole entry): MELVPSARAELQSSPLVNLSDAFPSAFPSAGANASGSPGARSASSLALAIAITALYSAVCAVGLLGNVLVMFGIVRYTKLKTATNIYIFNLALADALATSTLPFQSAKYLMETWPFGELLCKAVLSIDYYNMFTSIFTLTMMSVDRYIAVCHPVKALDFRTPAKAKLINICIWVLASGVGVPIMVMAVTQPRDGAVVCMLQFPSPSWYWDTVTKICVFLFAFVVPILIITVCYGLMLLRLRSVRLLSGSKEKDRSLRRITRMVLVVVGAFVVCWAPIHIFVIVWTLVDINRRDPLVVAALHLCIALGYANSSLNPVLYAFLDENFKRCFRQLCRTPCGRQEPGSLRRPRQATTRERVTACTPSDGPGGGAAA
T1 sequence (P33533 whole entry): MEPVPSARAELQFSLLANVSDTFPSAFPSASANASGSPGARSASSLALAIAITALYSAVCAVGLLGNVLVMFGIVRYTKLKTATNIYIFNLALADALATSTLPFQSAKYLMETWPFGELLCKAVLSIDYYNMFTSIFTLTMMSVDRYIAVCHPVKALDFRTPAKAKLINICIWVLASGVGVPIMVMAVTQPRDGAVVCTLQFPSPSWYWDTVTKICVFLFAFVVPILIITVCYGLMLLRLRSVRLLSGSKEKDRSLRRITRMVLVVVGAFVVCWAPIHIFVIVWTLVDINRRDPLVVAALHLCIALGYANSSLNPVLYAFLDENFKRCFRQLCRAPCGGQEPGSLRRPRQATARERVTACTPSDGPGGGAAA

Structure (SMILES)	Ki (delta opioid receptor [1]; [3])	EC50 (delta opioid receptor [2]; [4])	Ki (delta opioid receptor [1]; [5])	further results
COc1ccc(Oc2nc(-c3cncc(C#N)c3)ncc2NCC2COCCN2)cc1 (racemic) [Cpd 279]	5 nM	0.17 µM	–	GTPγS δ-opioid receptor Rel Efficacy (delta opioid receptor [2]): 1.004
Cc1nc2ccc(Oc3nc(-c4cncc(C#N)c4)ncc3NC[C@@H]3CCCN3)cc2s1 [Cpd 88]	14 nM	0.478 µM	–	GTPγS δ-opioid receptor Rel Efficacy (delta opioid receptor [2]): 0.538
COc1ccc(Oc2nc(-c3cncnc3)ncc2NC[C@@H]2C[C@H](F)CN2)cc1 [Cpd 89]	–	1.31 µM	10 nM	–
Cc1nc2ccc(Oc3nc(-c4cncc(C#N)c4)ncc3NC[C@@H]3CCCN3)cc2s1 [Cpd 90]	–	0.923 µM	9 nM	–
Cc1nc2ccc(Oc3nc(-c4cncnc4)ncc3NC[C@@H]3CCCN3)cc2s1 [Cpd 91]	–	> 10 µM	22 nM	–
COc1ccc(Oc2nc(-c3cc(C)cc(C)c3)ncc2NC[C@@H]2CCCN2)cc1 [Cpd 92]	–	0.47 µM	35 nM	–
COc1ccc(Oc2nc(-c3cc(Cl)cc(Cl)c3)ncc2NC[C@@H]2CCCN2)cc1 [Cpd 94]	143 nM	–	–	–
COc1ccc(Oc2nc(-c3ccc(C#N)nc3)ncc2NC[C@@H]2CCCN2)cc1 [Cpd 95]	–	0.708 µM	11 nM	–
COc1c(F)cc(Oc2nc(-c3cncc(C#N)c3)ncc2NC[C@@H]2CCCN2)cc1F [Cpd 96]	–	0.749 µM	35 nM	–
COc1c(F)cc(Oc2nc(-c3cncnc3)ncc2NC[C@@H]2CCCN2)cc1F [Cpd 97]	–	7.12 µM	39 nM	–
COc1cccc(Oc2nc(-c3cncnc3)ncc2NC[C@@H]2CCCN2)c1 [Cpd 99]	–	0.939 µM	59 nM	–
COc1cccc(Oc2nc(-c3cccnc3)ncc2NC[C@@H]2CCCN2)c1 [Cpd 100]	–	1.62 µM	33 nM	–
COc1ccc(Oc2nc(-c3cncc(F)c3)ncc2NC[C@@H]2CCCN2)c(F)c1F [Cpd 102]	–	0.255 µM	3 nM	–
COc1ccc(Oc2nc(-c3cncnc3)ncc2NC[C@@H]2CCCN2)c(F)c1F [Cpd 103]	–	0.311 µM	11 nM	–
COc1ccc(Oc2nc(-c3cncc(S(C)(=O)=O)c3)ncc2NC[C@@H]2CCCN2)cc1 [Cpd 108]	107 nM	–	–	–
FC(F)Oc1ccc(Oc2nc(-c3cncnc3)ncc2NC[C@@H]2CCCN2)cc1 [Cpd 111]	–	0.491 µM	9 nM	–

Structure (SMILES)	Ki (delta opioid receptor [1]; [3])	EC50 (delta opioid receptor [2]; [4])	Ki (delta opioid receptor [1]; [5])	further results
Fc1cncc(-c2ncc(NC[C@@H]3CCCN3)c(Oc3ccc(OC(F)F)cc3)n2)c1 [Cpd 112]	6 nM	0.33 µM	–	GTPγS δ-opioid receptor Rel Efficacy (delta opioid receptor [2]): 1.082
CCCOc1ccc(Oc2nc(-c3cncnc3)ncc2NC[C@@H]2CCCN2)cc1 [Cpd 114]	–	0.306 µM	8 nM	–
CCCOc1ccc(Oc2nc(-c3cncc(F)c3)ncc2NC[C@@H]2CCCN2)cc1 [Cpd 115]	–	2.71 µM	52 nM	–
COc1ccc(Oc2nc(-c3cccc4[nH]ccc34)ncc2NC[C@@H]2CCCN2)cc1 [Cpd 117]	157 nM	–	–	–
COc1ccc(Oc2nc(-c3ccc4cc[nH]c4c3)ncc2NC[C@@H]2CCCN2)cc1 [Cpd 118]	155 nM	–	–	–
COc1ccc(Oc2nc(-c3cccc4cc[nH]c34)ncc2NC[C@@H]2CCCN2)cc1 [Cpd 119]	4020 nM	–	–	–
COc1ccc(Oc2nc(-c3cnccn3)ncc2NC[C@@H]2CCCN2)cc1 [Cpd 120]	104 nM	–	–	–
N#Cc1cncc(-c2ncc(NC[C@@H]3CCCN3)c(Oc3ccc(OCC(F)(F)F)cc3)n2)c1 [Cpd 122]	122 nM	–	–	–
CCCCOc1ccc(Oc2nc(-c3cncc(C#N)c3)ncc2NC[C@@H]2CCCN2)cc1 [Cpd 125]	–	–	78 nM	–
CCCCOc1ccc(Oc2nc(-c3cncnc3)ncc2NC[C@@H]2CCCN2)cc1 [Cpd 126]	565 nM	–	–	–
CCCCOc1ccc(Oc2nc(-c3cncc(F)c3)ncc2NC[C@@H]2CCCN2)cc1 [Cpd 127]	224 nM	–	–	–
COc1ccc(Oc2nc(-c3cncc(F)c3)ncc2NCC2CNCCO2)cc1 (stereo not drawn) [Cpd 276]	227 nM	–	–	–
COc1ccc(Oc2nc(-c3cncc(C#N)c3)ncc2NC2CC(N)C2)cc1 (stereo not drawn) [Cpd 303]	–	0.114 µM	–	GTPγS δ-RelEfficacy @200 nM (delta opioid receptor [2]): 0.622; GTPγS δ-opioid receptor Rel Efficacy (delta opioid receptor [2]): 1.047
COc1ccc(Oc2nc(-c3cccnc3)ncc2N[C@H]2CC[C@@H](N)CC2)cc1 [Cpd 305]	–	–	–	GTPγS δ-RelEfficacy @200 nM (delta opioid receptor [2]): 0.780; EC50 (delta opioid receptor [2]; [6]): 0.09 µM; GTPγS δ-opioid receptor Rel Efficacy (delta opioid receptor [2]): 1.081
COc1ccc(Oc2nc(-c3cccnc3)ncc2NC2CCCC(N)C2)cc1 (stereo not drawn) [Cpd 306]	–	–	–	GTPγS δ-RelEfficacy @200 nM (delta opioid receptor [2]): 0.910; EC50 (delta opioid receptor [2]; [6]): 0.031 µM; GTPγS δ-opioid receptor Rel Efficacy (delta opioid receptor [2]): 1.127
